Where two headings read alike, the source gives them in different places.
Experiment: Pharmacokinetic study of 14 compounds in rat plasma after oral administration of XYP (UPLC-MS/MS)
Assay type: in vivo, Sprague–Dawley rats
Set-up: Kel (elimination rate constant): unit not given here
Details: oral XYP 4 g/kg; for AUC(0-inf) / AUC(0-t) / Cmax / half-life / MRT last / MRT inf / Tmax: female, Sprague-Dawley; for MRT last: n = 6, read-out: MRT0–t; for MRT inf: n = 6, read-out: MRT0–∞; for Tmax: rat, plasma, po, 4 g/kg
Protocol: The validated UPLC-MS/MS method was successfully applied to the pharmacokinetic study of 14 compounds in rat plasma after the oral administration of XYP at a dose of 4 g/kg (8-fold the clinical dosage).
Quantitative analysis was conducted on a Waters® Micromass® Quattro Premier™ XE triple-quadrupole tandem mass spectrometer (Waters Corp., Milford, MA, USA). Chromatographic separation was performed on an ACQUITY UPLCTM BEH C18 column (1.7 µm, 50 × 2.1 mm; Waters Corp.) equipped with an ACQUITY UPLC C18 guard column. The column temperature was maintained at 35 °C. The mobile phase consisted of 0.1% formic acid in water (A) and acetonitrile (B). The total flow rate was 0.3 mL/min. Chromatographic separation was achieved using a 14.5-min gradient elution. The gradient conditions of the mobile phase were as follows: 0–4 min, 4–22% (B); 4–5 min, 22–27% (B); 5–10 min, 27–50% (B); and 10–14.5 min, 50–96% (B). The samples were kept at 4 °C in the auto-sampler, and the injection volume was 5 µL.
Methanol (1.5 mL), 10 μg/mL IS and 300 μL plasma was mixed, then vortexed for 1 min. After centrifuging at 14,000× g for 10 min, the supernatant was put into another centrifuge tube. The residue was vortexed with another 1.5 mL methanol and centrifuged again, and the two supernatants were combined and evaporated to dryness under a flow of nitrogen gas at 40 °C. The residue was then dissolved in 100 μL methanol and vortexed for 1 min. Finally, the vortexing and centrifugation process was again repeated, and 5 μL of the supernatant was injected into the UPLC-MS/MS system for analysis.
Twenty healthy female Sprague–Dawley rats (300 ± 20 g) were purchased from the Animal Safety Evaluation Center of Heilongjiang University of Chinese Medicine (Heilongjiang, China). All protocols for animal experiments were approved in accordance with the Regulations of Experimental Animal Administration issued by the State Commission of Science and Technology of the People’s Republic of China. The rats were kept under a light/dark cycle of 12 h, within the temperature range of 24 °C ± 2 °C to room temperature, and at a humidity of 50 ± 10%. All rats were fasted for 12 h before experimentation but were allowed to drink freely. XYP extract was dissolved in water, and the rats were administrated orally with 4 g/kg XYP. Blood samples were collected from the suborbital venous lexus at 0, 0.083, 0.17, 0.33, 0.50, 0.75, 1.0, 2.0, 4.0, 8.0, 12 and 24 h into 1.5-mL heparinized polythene tubes […]. The blood samples were immediately centrifuged at 4500 rpm for 10 min, and the plasma was stored at −80 °C until analysis. The pharmacokinetic parameters (Cmax, tmax, t1/2, Kel, AUC0–t, AUC0–∞, MRT0–t, MRT0–∞) were calculated with the software Winnolin 3.2.

[1] = mean ± SD, n = 6, read-out: tmax
[2] = read-out: tmax (time to maximum plasma concentration)

Row | SMILES | AUC(0-inf) (mean ± SD, n = 6) | AUC(0-t) (mean ± SD, n = 6) | Cmax (mean ± SD, n = 6) | half-life (mean ± SD, n = 6) | MRT last (mean ± SD) | MRT inf (mean ± SD) | Tmax [1] | Kel (elimination rate constant) (mean ± SD, n = 6) | Tmax [2] | time of second maximal plasma concentration | time of first detection in plasma | shape of plasma concentration-time curve | t1/2 (mean ± SD, n = 6)
1 | C=C1CCC[C@]2(C)C[C@@H]3OC(=O)C(C)=C3C[C@@H]12 [Atractylenolide II, atractylenolide II] | 70.2 ± 25.6 ng·h/mL | 69.5 ± 25.7 ng·h/mL | 22.5 ± 8.04 ng/mL | 3.54 ± 1.21 h | 4.15 ± 0.82 h | 4.43 ± 0.98 h | 0.64 ± 0.29 h | 0.21 ± 0.07 |  |  |  |  | 
2 | O=c1c(O)c(-c2ccc(O)c(O)c2)oc2cc(O)cc(O)c12 [Quercetin, quercetin] | 782 ± 415 ng·h/mL | 766 ± 410 ng·h/mL | 491 ± 168 ng/mL | 4.09 ± 1.24 h | 6.4 ± 0.85 h | 7.03 ± 1.02 h | 0.1 ± 0.03 h | 0.19 ± 0.07 | 0.1 h | ~8 h |  |  | 
3 | C=C1CCC[C@]2(C)C[C@]3(O)OC(=O)C(C)=C3C[C@@H]12 [Atractylenolide III, atractylenolide III] | 1130 ± 487 ng·h/mL | 1040 ± 497 ng·h/mL | 230 ± 108 ng/mL | 6.95 ± 2.65 h | 6.23 ± 1.55 h | 8.6 ± 3.13 h | 0.67 ± 0.26 h | 0.11 ± 0.05 |  |  |  |  | 
4 | COc1cc(/C=C/C(=O)O)ccc1O [Ferulic acid, ferulic acid] | 1610 ± 853 ng·h/mL | 1580 ± 851 ng·h/mL | 632 ± 244 ng/mL | 5.3 ± 1.85 h | 3.97 ± 0.8 h | 4.66 ± 0.52 h | 0.21 ± 0.1 h | 0.15 ± 0.05 | 0.2 h |  | 5 min |  | 
5 | C[C@@H]1O[C@@H](O[C@H]2[C@H](O)[C@@H](O)[C@H](O[C@H]3CC[C@]4(C)[C@H]5C=C[C@]67OC[C@@]8(CCC(C)(C)C[C@H]86)[C@@H](O)C[C@@]7(C)[C@]5(C)CC[C@H]4C3(C)C)O[C@@H]2CO[C@@H]2O[C@H](CO)[C@@H](O)[C@H](O)[C@H]2O)[C@H](O)[C@H](O)[C@H]1O [Saikosaponin c, saikosaponin c] | 5.93 ± 2.19 ng·h/mL | 5.61 ± 1.92 ng·h/mL | 0.96 ± 0.33 ng/mL | 4.23 ± 2.83 h | 6.49 ± 1.17 h | 7.67 ± 2.7 h | 0.42 ± 0.09 h | 0.22 ± 0.11 |  |  |  | double peaks | 
6 | CC12CC(O)C3CC1(OC1OC(CO)C(O)C(O)C1O)C3(COC(=O)c1ccccc1)C(=O)O2 (centres unmarked) [Albiflorin, albiflorin] | 135 ± 65.6 ng·h/mL | 128 ± 64.9 ng·h/mL | 58.3 ± 27.5 ng/mL | 7.11 ± 4.57 h | 4.18 ± 1.58 h | 6.34 ± 4.5 h | 0.39 ± 0.09 h | 0.13 ± 0.06 |  |  |  |  | 
7 | O=C1C[C@@H](c2ccc(O[C@@H]3O[C@H](CO)[C@@H](O)[C@H](O)[C@H]3O)cc2)Oc2cc(O)ccc21 [Liquiritin, liquiritin] | 181 ± 90.9 ng·h/mL | 163 ± 91.5 ng·h/mL | 57.9 ± 36.6 ng/mL |  | 5.7 ± 1.25 h | 10.2 ± 6.79 h | 0.39 ± 0.09 h | 0.09 ± 0.04 |  |  |  | double peak | 9.32 ± 5.49 h
8 | O=C(/C=C/c1ccc(O)cc1)c1ccc(O)cc1O [Isoliquiritigenin, isoliquiritigenin] | 185 ± 89.9 ng·h/mL | 157 ± 76.7 ng·h/mL | 33.6 ± 9.37 ng/mL | 5.82 ± 3.25 h | 5.98 ± 1.5 h | 7.81 ± 3.39 h | 0.39 ± 0.09 h | 0.17 ± 0.12 |  | about 4 h |  | double peak | 
9 | O=C1C[C@@H](c2ccc(O)cc2)Oc2cc(O)ccc21 [Liquiritigenin, liquiritigenin] | 328 ± 198 ng·h/mL | 286 ± 144 ng·h/mL | 33.2 ± 12 ng/mL | 6.43 ± 2.42 h | 8.85 ± 1.09 h | 11.5 ± 3.02 h | 0.19 ± 0.07 h | 0.12 ± 0.06 |  | about 4 h |  | double peak | 
10 | CC1(C)[C@@H](O[C@H]2O[C@H](C(=O)O)[C@@H](O)[C@H](O)[C@H]2O[C@@H]2O[C@H](C(=O)O)[C@@H](O)[C@H](O)[C@H]2O)CC[C@]2(C)[C@H]3C(=O)C=C4[C@@H]5C[C@@](C)(C(=O)O)CC[C@]5(C)CC[C@@]4(C)[C@]3(C)CC[C@@H]12 [Glycyrrhizic acid, glycyrrhizic acid] | 156 ± 59.6 ng·h/mL | 138 ± 57 ng·h/mL | 18.6 ± 6.61 ng/mL | 7.63 ± 5.35 h | 10.1 ± 0.58 h | 13.6 ± 5.72 h | 0.33 ± 0.11 h | 0.12 ± 0.05 |  |  |  | double peaks | 
11 | CCC/C=C1\OC(=O)C2=C1CCC=C2 [Ligustilide, ligustilide] | 207 ± 58.5 ng·h/mL | 194 ± 57.7 ng·h/mL | 65 ± 42.2 ng/mL | 5.44 ± 3.09 h | 5.63 ± 2.32 h | 7.47 ± 4.23 h | 0.31 ± 0.13 h | 0.17 ± 0.10 | ~0.3 h |  |  |  | 
12 | CCC/C=C1\OC(=O)C2=C1CC[C@H](O)[C@H]2O [Senkyunolide I, senkyunolide I] | 1620 ± 967 ng·h/mL | 1580 ± 986 ng·h/mL | 403 ± 201 ng/mL | 4.75 ± 2.78 h | 5.31 ± 0.72 h | 6.37 ± 2.39 h | 0.36 ± 0.13 h | 0.18 ± 0.07 |  |  |  |  | 
13 | C[C@@]12C[C@@]3(O)O[C@@H](O1)[C@]1(COC(=O)c4ccccc4)[C@H]3C[C@@]12O[C@@H]1O[C@H](CO)[C@@H](O)[C@H](O)[C@H]1O [Paeoniflorin, paeoniflorin] | 718 ± 227 ng·h/mL | 697 ± 211 ng·h/mL | 587 ± 181 ng/mL | 4.82 ± 1.71 h | 4.17 ± 1.38 h | 4.91 ± 1.68 h | 0.42 ± 0.09 h | 0.16 ± 0.06 |  |  |  |  | 
14 | C[C@H]1O[C@@H](O[C@H]2CC[C@@]3(C)[C@@H](CC[C@]4(C)[C@@H]3C=C[C@]35OC[C@@]6(CCC(C)(C)C[C@H]63)[C@@H](O)C[C@]54C)[C@]2(C)CO)[C@H](O)[C@@H](O[C@@H]2O[C@H](CO)[C@@H](O)[C@H](O)[C@H]2O)[C@H]1O [Saikosaponin a, saikosaponin a] | 18 ± 6.88 ng·h/mL | 16.3 ± 5.15 ng·h/mL | 6.05 ± 1.3 ng/mL | 6.46 ± 2.57 h | 6.61 ± 1.12 h | 8.88 ± 3.49 h | 0.42 ± 0.09 h | 0.12 ± 0.03 |  |  |  | double peaks | 
